Measurements published in US11311548B2, “Cancer therapy” (Aslan Pharmaceuticals Pte. Ltd., priority 2017, dated 2022).
“Also recorded” adds a separate entry of the source.

What was measured:
HL-60 = assay: Differentiation of AML cell line (CD11b/CD14 flow cytometry, NBT assay, Wright-Giemsa staining); type: cell-based; conditions: HL-60, FAB M2
Description: (§1) The AML cell lines were dosed with the varying concentrations of ASLAN003 and differentiation of the cell lines were observed via upregulation of CD11b and CD14 on the cell surface via flow cytometry. Differentiation was also determined using the NBT assay and from morphological observations from Wright-Giemsa staining.

KG-1 = assay: as above; type: cell-based; conditions: KG-1, FAB M0/M1
Description: as §1

MOLM-14 = assay: as above; type: cell-based; conditions: MOLM-14, FAB M5
Description: as §1

NB-4 = assay: as above; type: cell-based; conditions: NB-4, FAB M3
Description: as §1

THP-1 = assay: as above; type: cell-based; conditions: THP-1, FAB M5
Description: as §1

MOLM-14 xenograft = MOLM-14 xenograft model in NSG mice; type: in vivo
Description: NSG mice were inoculated with MOLM-14 cells via tail vein injection. Treatment by oral gavage with either ASLAN003 (50 mg/kg QD) or vehicle control was started 3 days past inoculation. 11 mice were treated in the ASLAN003 group and 12 mice were treated in the vehicle control group. The following data is collected at the end of the experiment: […]

AD345 primary MDS cells = assay: FACs analysis of primary MDS cells; type: cell-based; conditions: 96 hours
Description: (§2) AD345 primary MDS cells (refractory cytopenia with multilineage dysplasia, normal karyotype) and AD537 primary MDS bone marrow cells (refractory cytopenia with multilineage dysplasia, karyotype 46, XY, 43.1% myeloid) were treated with ASLAN003 (4000 nM) or DMSO control for 96 hours. A FACs analysis was then performed using Pacific blue dye. The AD537 cells were also stained with Wright-Giemsa and NBT reduction.

[1] = system: AD537 primary MDS bone marrow cells; assay: FACs analysis of primary MDS bone marrow cells; type: cell-based; conditions: 96 hours
Description: as §2

[2] = system: Multiple myeloma (MM) cell lines; assay: CellTiter-Glo Luminescent Cell Viability Assay, MM cell lines; type: cell-based, human; conditions: increasing dose, 48 hours
Description: (§3) Multiple myeloma (MM) or chronic myeloid leukaemia (CML) cell lines were seeded at 20,000 cells in 100 μL of medium in 96-well format and treated with increasing dose of ASLAN003 for 48 hours. DMSO was used as control. The CellTiter-Glo® Luminescent Cell Viability Assay, which is a homogeneous method of determining the number of viable cells in culture based on quantitation of the ATP present, i.e. an indicator of metabolically active cells was then performed on the cell lines.

[3] = system: chronic myeloid leukaemia (CML) cell lines; assay: CellTiter-Glo Luminescent Cell Viability Assay, CML cell lines; type: cell-based, human; conditions: CML cell lines (K562, KCL-22), increasing dose, 48 hours
Description: as §3

Q: `COc1cccc(-c2cc(F)c(Nc3ncccc3C(=O)O)c(F)c2)c1` [ASLAN003, 2-(3,5-difluoro-3′-methoxybiphenyl-4-ylamino) nicotinic acid] was tested. Which “ASLAN003 Differentiation” value (HL-60) did it give?
A: did not induce observed differentiation effects; also recorded: Negative

Q: What about the “ASLAN003 Differentiation” value (KG-1) of the same compound?
A: myeloid differentiation effects of ASLAN003 were observed; also recorded: Positive

Q: And the “ASLAN003 Differentiation” value (MOLM-14)?
A: myeloid differentiation effects of ASLAN003 were observed; also recorded: Positive

Q: And the “ASLAN003 Differentiation” value (NB-4)?
A: did not induce observed differentiation effects; also recorded: Negative

Q: What about the “ASLAN003 Differentiation” value (THP-1) of the same compound?
A: myeloid differentiation effects of ASLAN003 were observed; also recorded: Positive

Q: And the “Survival of MOLM-14 xenograft mice” value (MOLM-14 xenograft; 50 mg/kg QD oral gavage, vs vehicle)?
A: significantly (p=0.031) prolonged survival

Q: And the Median survival (MOLM-14 xenograft; MOLM-14 xenograft NSG mice, 50 mg/kg QD oral gavage from 3 days past inoculation, vehicle group 24 days)?
A: 27 days

Q: And the “Leukaemic burden (percentage of CD45+ cells)” value (MOLM-14 xenograft; bone marrow, peripheral blood, spleen and liver, 50 mg/kg QD oral gavage, flow cytometry)?
A: significantly decreased leukaemic burden

Q: What about the “Differentiation of leukaemic cells (hCD11b+ and hCD14+ cells)” value (MOLM-14 xenograft; bone marrow, 50 mg/kg QD oral gavage, flow cytometry) of the same compound?
A: significantly induced differentiation

Q: And the “increase in CD11b+CD14+ cells” value (AD345 primary MDS cells; AD345, 4 μM)?
A: about 11%

Q: And the “increase in CD13+CD33+ cells” value (AD345 primary MDS cells; AD345, 4 μM)?
A: about 12.3%

Q: And the viability at 4 µM (AD345 primary MDS cells; AD345, 4000 nM, DMSO control 93%, read-out: % viable cells)?
A: 86.5%

Q: What about the “increase in CD13+CD33+ cells” value ([1]; AD537, 4 μM) of the same compound?
A: about 12.3%

Q: What about the “increase in CD14+ cells” value ([1]; AD537, 4 μM) of the same compound?
A: about 20%

Q: What about the “increase of CD11b+ cells” value ([1]; AD537, 4 μM) of the same compound?
A: ~30%

Q: What about the viability at 4 µM ([1]; Bone marrow cell, AD537, 4000 nM, DMSO control 84.5%, read-out: % viable cells) of the same compound?
A: 73%

Q: What about the Cell viability [2] of the same compound?
A: has the ability to reduce the viability

Q: What about the Cell viability [3] of the same compound?
A: has the ability to reduce the viability
